Twelve molecules from patent US20250170248A1, “SMARCA DEGRADERS AND USES THEREOF” (Kymera Therapeutics, Inc., priority 2021, published 2025) can be followed below.

The term DC50 denotes the midpoint of the concentration-degradation curve. What is called Dmax is the greatest extent of degradation seen.

What all share (type): cell-based
One assay deals with T1, SMARCA4 (Homo sapiens, UniProt P51532).
T1 construct: SMARCA2/SMARCA4 protein degradation selectivity in MV4-11 cells; endogenous in cells; host or cells: MV4-11
Description: SMARCA4 Western blot degradation in MV4-11 cells. The conditions noted are these: for DC50 / SMARCA4 MSD MV411 degradation 24 h: average Dmax %: MV4-11 cells; for DC50 / Dmax: 24 h; for DC50: read-out: SMARCA4 MSD MV411 degradation 24 h: Mean external-Abs DC50; for Dmax: MV4-11, MV4-11 cells, read-out: SMARCA4 MSD MV411 degradation 24 h: average Dmax %. In short, it runs like this: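 MV4-11 cells (4×10^6/well) treated with compound for 24 h, lysed in RIPA with protease/phosphatase inhibitors, and SMARCA2, SMARCA4 and beta-actin detected by Western blot with LI-COR readout. Values reported as letter-coded DC50, 24 h Dmax % and SMARCA2/4 selectivity fold.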
On the technique in general: In western blotting, separated proteins are transferred to a membrane and probed.

In assay [1] the target is T2, SMARCA2 (Homo sapiens, UniProt P51531). Description: SMARCA2 Western blot degradation in MV4-11 cells. Also noted: SMARCA2/SMARCA4 protein degradation selectivity in MV4-11 cells; endogenous in cells; host or cells: MV4-11. The conditions noted are these: for DC50 / Selectivity in MV411 / SMARCA2 MSD MV411 degradation 24 h: average Dmax %: MV4-11 cells; for DC50 / Dmax / SMARCA2 MSD MV411 degradation 24 h: average Dmax %: 24 h; for DC50: read-out: SMARCA2 MSD MV411 degradation 24 h: Mean external-Abs DC50; for Selectivity in MV411: SMARCA2/4 selectivity; for Dmax: MV4-11, MV4-11 cells, read-out: SMARCA2 MSD MV411 degradation 24 h: average Dmax %.

For assay [2], the target named is T2, SMARCA2. Description: MSD SMARCA2 degradation in A549 cell line. The conditions noted are these: for DC50 / SMARCA2 MSD A549 degradation 24 h: Average Dmax %: A549 cells; for DC50 / Dmax: 24 h; for DC50: read-out: SMARCA2 MSD A549 degradation 24 h: Average external-Abs DC50; for Dmax: A549, A549 cells. On the procedure: Example 10. MSD SMARCA2 Degradation in A549 Cell Line
Cells were seeded into 96-well plates (A549 cells: 2×10^4 cells/well/100 ul media) and incubated overnight. The next day, 200 nL compound were added into the intermediate plate with Echo (Labcyte 550) from source plate containing a 3-fold serial dilution from top concentration of 1 mM. The culture medium was changed with 8 0ul of fresh medium and 80 μL of 2× compound solution was added into the well to make a final concentration of 1000 nM, 333.3 nM, 111.1 nM, 37.04 nM, 12.35 nM, 4.115 nM, 1.372 nM, 0.457 nM, 0.152 nM and 0 nM (DMSO). The wells were mixed and then incubated for 24 hours. The media was aspirated from the cultures and 60 ul pre-chilled PIPA lysis buffer (Boston BioProducts BP-115D) with protease/phosphatase inhibitor (Roche 05892791001/Roche 04906837001) was added into the well to lyze the cells for 20 minutes at 4° C. The MSD plate (L15XA) was coated with 40 uL cell lysate and incubated at 4° C. overnight. The next day, the plate was washed three times with TBST (CST #9997S), 150 ul/well. The MSD plates was blocked with 150 ul blocking buffer per well and shaked for 1 hr at RT, 600 rpm. The blocking buffer was 3% Blocker A (MSD, R93BA-4) in TBST. The MSD plate was washed three times with 150 uL/well of TBST and 25 ul/well of detection antibody (Rabbit anti-SMARCA2/BRM antibody, 100 μg/mL, ab223735) was added at final concentration of 1 μg/mL diluted in 1% Blocking buffer and shaken for 1 hour at RT, 600 rpm. The MSD plate was washed three times with 150 ul/well of TBST and 25 ul/well of SULFO-TAG anti-rabbit antibody (MSD, R32AB-1) was added at final concentration of 1 μg/ml diluted in 1% Blocking buffer and shaken for 1 hour at RT, 600 rpm. The MSD plate was washed three times with 150 uL/well of TBST and 150 ul/well of 2× MSD reading buffer diluted from 4× (MSD, R92TC-2) with water was added. Lastly, the MSD instrument was read.
The letter codes for SMARCA2 degradation potency (DC50) include: A (<10 nM), B (10-50 nM), C (>50-100 nM), and D (>100 nM). The letter codes for the percentage of SMARCA degradation after 24 hours (Dmax %) include: A (>90% degradation), B (>70-90% degradation), C (50-70% degradation), and D (<50% degradation).

T2 sequence (P51531 whole entry): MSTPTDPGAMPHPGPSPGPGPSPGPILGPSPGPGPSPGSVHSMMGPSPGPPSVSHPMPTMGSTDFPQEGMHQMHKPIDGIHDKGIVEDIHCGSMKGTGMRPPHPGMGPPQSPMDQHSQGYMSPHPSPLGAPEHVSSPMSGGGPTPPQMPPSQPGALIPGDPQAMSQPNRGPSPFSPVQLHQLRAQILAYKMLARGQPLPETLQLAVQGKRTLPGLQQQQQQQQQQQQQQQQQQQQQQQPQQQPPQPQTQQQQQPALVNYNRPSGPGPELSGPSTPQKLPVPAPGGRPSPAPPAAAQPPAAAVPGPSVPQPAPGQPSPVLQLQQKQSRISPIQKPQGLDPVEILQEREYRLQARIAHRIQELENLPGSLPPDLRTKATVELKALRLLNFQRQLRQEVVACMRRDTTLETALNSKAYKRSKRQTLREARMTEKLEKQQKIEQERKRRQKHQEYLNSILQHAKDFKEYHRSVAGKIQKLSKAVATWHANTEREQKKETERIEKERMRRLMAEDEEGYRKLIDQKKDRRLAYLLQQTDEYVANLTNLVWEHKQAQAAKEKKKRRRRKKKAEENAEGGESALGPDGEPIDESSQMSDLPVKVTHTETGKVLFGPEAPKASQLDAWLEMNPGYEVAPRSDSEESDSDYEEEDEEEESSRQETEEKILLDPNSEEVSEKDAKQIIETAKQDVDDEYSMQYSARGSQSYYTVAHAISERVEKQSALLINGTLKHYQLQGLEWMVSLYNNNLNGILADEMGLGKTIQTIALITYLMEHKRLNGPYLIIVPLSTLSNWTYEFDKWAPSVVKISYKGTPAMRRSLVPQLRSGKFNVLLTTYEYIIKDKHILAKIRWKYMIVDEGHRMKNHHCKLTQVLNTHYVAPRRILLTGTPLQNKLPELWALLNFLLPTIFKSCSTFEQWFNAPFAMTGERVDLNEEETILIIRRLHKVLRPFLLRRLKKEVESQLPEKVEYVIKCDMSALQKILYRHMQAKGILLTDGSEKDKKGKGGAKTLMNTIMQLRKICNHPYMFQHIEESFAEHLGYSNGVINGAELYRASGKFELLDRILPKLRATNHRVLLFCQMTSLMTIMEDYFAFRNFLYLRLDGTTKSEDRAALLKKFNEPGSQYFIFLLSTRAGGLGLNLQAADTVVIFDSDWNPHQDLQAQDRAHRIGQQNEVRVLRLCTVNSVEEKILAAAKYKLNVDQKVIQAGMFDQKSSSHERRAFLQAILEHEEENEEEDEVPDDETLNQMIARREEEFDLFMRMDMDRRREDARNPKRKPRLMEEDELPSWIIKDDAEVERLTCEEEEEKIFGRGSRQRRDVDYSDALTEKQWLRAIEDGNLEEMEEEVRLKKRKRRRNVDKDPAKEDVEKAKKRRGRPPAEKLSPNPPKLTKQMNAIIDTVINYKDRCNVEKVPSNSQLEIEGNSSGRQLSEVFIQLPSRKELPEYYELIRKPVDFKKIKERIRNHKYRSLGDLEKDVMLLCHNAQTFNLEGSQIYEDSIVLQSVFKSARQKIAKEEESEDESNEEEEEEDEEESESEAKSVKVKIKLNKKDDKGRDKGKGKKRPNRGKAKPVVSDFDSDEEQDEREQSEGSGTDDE
T1 sequence (P51532 whole entry): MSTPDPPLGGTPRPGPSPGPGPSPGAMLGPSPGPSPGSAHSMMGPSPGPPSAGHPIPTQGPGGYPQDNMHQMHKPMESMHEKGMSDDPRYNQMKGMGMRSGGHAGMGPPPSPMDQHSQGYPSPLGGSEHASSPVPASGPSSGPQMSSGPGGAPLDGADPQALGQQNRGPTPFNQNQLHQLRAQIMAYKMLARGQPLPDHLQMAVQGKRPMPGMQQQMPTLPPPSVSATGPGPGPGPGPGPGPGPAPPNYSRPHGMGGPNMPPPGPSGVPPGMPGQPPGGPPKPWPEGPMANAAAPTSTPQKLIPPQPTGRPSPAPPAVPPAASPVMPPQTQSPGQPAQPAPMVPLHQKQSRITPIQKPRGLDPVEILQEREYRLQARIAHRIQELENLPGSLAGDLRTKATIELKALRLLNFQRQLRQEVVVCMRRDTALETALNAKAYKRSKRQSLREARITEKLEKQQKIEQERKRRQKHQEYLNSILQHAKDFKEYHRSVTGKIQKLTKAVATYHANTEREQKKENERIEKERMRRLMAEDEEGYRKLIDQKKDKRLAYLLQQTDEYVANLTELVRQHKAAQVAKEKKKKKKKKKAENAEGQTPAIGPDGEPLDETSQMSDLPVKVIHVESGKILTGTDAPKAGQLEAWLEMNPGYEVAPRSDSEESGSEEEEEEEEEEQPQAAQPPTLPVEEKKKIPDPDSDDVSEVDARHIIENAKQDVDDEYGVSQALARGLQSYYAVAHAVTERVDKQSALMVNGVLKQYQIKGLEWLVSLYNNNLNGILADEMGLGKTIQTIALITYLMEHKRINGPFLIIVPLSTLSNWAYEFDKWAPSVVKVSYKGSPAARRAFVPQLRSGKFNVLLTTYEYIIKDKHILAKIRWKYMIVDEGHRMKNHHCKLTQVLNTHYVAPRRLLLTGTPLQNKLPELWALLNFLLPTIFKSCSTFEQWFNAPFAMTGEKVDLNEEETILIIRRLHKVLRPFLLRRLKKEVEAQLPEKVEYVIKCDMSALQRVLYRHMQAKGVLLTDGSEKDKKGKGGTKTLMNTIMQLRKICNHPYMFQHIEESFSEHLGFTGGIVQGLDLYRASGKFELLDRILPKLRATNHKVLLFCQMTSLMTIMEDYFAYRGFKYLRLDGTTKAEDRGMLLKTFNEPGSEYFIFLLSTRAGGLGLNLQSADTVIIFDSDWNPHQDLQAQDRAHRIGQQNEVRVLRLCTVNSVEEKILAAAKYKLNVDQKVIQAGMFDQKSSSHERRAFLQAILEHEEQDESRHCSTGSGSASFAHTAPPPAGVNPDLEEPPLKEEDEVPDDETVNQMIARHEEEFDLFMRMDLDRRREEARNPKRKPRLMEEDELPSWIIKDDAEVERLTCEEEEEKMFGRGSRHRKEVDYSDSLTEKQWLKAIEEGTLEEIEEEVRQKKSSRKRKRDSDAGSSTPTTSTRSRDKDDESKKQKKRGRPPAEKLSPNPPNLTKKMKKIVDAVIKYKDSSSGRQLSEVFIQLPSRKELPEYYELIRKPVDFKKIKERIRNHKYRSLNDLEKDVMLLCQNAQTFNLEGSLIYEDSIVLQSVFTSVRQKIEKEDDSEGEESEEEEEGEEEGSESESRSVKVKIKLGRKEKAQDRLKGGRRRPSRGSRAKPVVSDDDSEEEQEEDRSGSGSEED

On to `C#Cc1ccc(CNC(=O)[C@@H]2C[C@@H](O)CN2C(=O)[C@@H](NC(=O)[C@H]2CC3(C2)C[C@H](N2CCN(C(=O)CCN4CCN5c6cc(-c7ccccc7O)nnc6NC[C@H]5C4)CC2)C3)C(C)(C)C)cc1` (stereo partly drawn) [I-275], for which the DC50 is 10 to 100 nM on SMARCA4, 1 to 10 nM at SMARCA2 [1] and more than 100 nM at SMARCA2 [2]. Besides, the “Selectivity in MV411” value on SMARCA2 [1] is “C (C (10-100 fold))”.
As to `CC(C)(C)[C@H](NC(=O)[C@H]1CCC2(CC1)C[C@H](N1CCC(c3cnc(N4CCN5c6cc(-c7ccccc7O)nnc6NC[C@H]5C4)nc3)CC1)C2)C(=O)N1C[C@H](O)C[C@H]1C(=O)NCC#Cc1ccc(Cl)cc1` (single isomer, unassigned) [I-101], the Dmax on SMARCA4 is less than 50%; on SMARCA2 [1] it was less than 50%; on SMARCA2 [2], 50 to 70%. Moreover, the DC50 on SMARCA4, at SMARCA2 [1] and at SMARCA2 [2] was more than 100 nM throughout. For the same molecule, the “Selectivity in MV411” value on SMARCA2 [1] was “C (C (10-100 fold))”.
On to `Cc1ncsc1-c1ccc(CNC(=O)[C@@H]2C[C@@H](O)CN2C(=O)[C@@H](NC(=O)[C@H]2CCC3(CC2)C[C@H](N2CCC(c4ccc(N5CCN6c7cc(-c8ccccc8O)nnc7NC[C@H]6C5)nc4)CC2)C3)C(C)(C)C)cc1` (stereo partly drawn) [I-94], for which, at SMARCA4, the “SMARCA4 MSD MV411 degradation 24 h: average Dmax %” value is recorded as “C (C (50-70% degradation))” and the DC50 fell in the range of 10 to 100 nM. Moreover, on SMARCA2 [1], the “SMARCA2 MSD MV411 degradation 24 h: average Dmax %” value was “B (B (>70-90% degradation))”, the DC50 was 1 to 10 nM and the “Selectivity in MV411” value is listed as “C (C (10-100 fold))”. Besides, on SMARCA2 [2], the “SMARCA2 MSD A549 degradation 24 h: Average Dmax %” value is “A (A (>90% degradation))” and the DC50 lay in the range of 10 to 50 nM.
Turning to `C#Cc1ccc(CNC(=O)[C@@H]2C[C@@H](O)CN2C(=O)[C@@H](NC(=O)N2CC3(CC(N4CCC(c5cnc(N6CCc7[nH]c8nnc(-c9ccccc9O)cc8c7[C@H]6C)nc5)CC4)C3)C2)C(C)(C)C)c(F)c1` [I-120], at SMARCA4, the Dmax is 50 to 70% and the DC50 was more than 100 nM. Also, on SMARCA2 [1], the Dmax is 70 to 90%, the DC50 fell in the range of 10 to 100 nM and the “Selectivity in MV411” value is listed as “B (B (>100-500 fold))”. Besides, on SMARCA2 [2], the Dmax was more than 90% and the 50% degradation concentration (DC50) was in the range of 10 to 50 nM.
In the case of `C#Cc1ccc(CNC(=O)[C@@H]2C[C@@H](O)CN2C(=O)[C@@H](NC(=O)[C@H]2CCC3(CC2)C[C@H](N2CCC(c4cnc(N5CCN6c7cc(-c8ccccc8O)nnc7NC[C@H]6C5)nc4)CC2)C3)C(C)(C)C)c(OCCCN(C)C)c1` (single isomer, unassigned) [I-158], at SMARCA4, the “SMARCA4 MSD MV411 degradation 24 h: average Dmax %” value is reported as “B (B (>70-90% degradation))” and the DC50 lay in the range of 10 to 100 nM. On SMARCA2 [1], the “SMARCA2 MSD MV411 degradation 24 h: average Dmax %” value was “B (B (>70-90% degradation))”, the DC50 was in the range of 1 to 10 nM and the “Selectivity in MV411” value is on record as “C (C (10-100 fold))”. In addition, on SMARCA2 [2], the “SMARCA2 MSD A549 degradation 24 h: Average Dmax %” value was “A (A (>90% degradation))” and the DC50 was in the range of 50 to 100 nM.
Take `C#Cc1ccc(CNC(=O)[C@@H]2C[C@@H](O)CN2C(=O)[C@@H](NC(=O)C2CCN(C[C@H]3CC[C@H](N4CCc5[nH]c6nnc(-c7ccccc7O)cc6c5[C@H]4C)CC3)CC2)C(C)(C)C)cc1` (single isomer, unassigned) [I-202]: on SMARCA4, the Dmax lay in the range of 50 to 70% and the DC50 is more than 100 nM. Besides, on SMARCA2 [1], the Dmax lay in the range of 70 to 90%, the DC50 fell in the range of 1 to 10 nM and the “Selectivity in MV411” value is “C (C (10-100 fold))”. On SMARCA2 [2], the Dmax was more than 90% and the DC50 was more than 100 nM.
On to `C#Cc1ccc(CNC(=O)[C@@H]2C[C@@H](O)CN2C(=O)[C@@H](NC(=O)N2CC3(CC(N4CCC(c5cnc(N6CCc7[nH]c8nnc(-c9ccccc9O)cc8c7[C@H]6C)nc5)CC4)C3)C2)C(C)(C)C)c(O)c1` [I-166], for which, at SMARCA4, the Dmax is more than 90% and the DC50 lay in the range of 10 to 100 nM. At SMARCA2 [1], the Dmax is more than 90%, the DC50 is 1 to 10 nM and the “Selectivity in MV411” value is on record as “C (C (10-100 fold))”. On SMARCA2 [2], the Dmax is more than 90% and the DC50 was less than 10 nM.
Regarding `C#Cc1ccc(CNC(=O)[C@@H]2C[C@@H](O)CN2C(=O)[C@@H](NC(=O)c2ccc(N3CCC(N4CCC(N5CCN6c7cc(-c8ccccc8O)nnc7NC[C@H]6C5)CC4)CC3)cc2)C(C)(C)C)cc1` [I-277], on SMARCA4, the Dmax was in the range of 70 to 90% and the DC50 fell in the range of 10 to 100 nM. In addition, on SMARCA2 [1], the Dmax was more than 90%, the half-maximal degradation concentration (DC50) was 1 to 10 nM and the “Selectivity in MV411” value was “C (C (10-100 fold))”. Moreover, on SMARCA2 [2], the Dmax was more than 90% and the DC50 is less than 10 nM.
As to `C#Cc1ccc(CNC(=O)[C@@H]2C[C@@H](O)CN2C(=O)[C@@H](NC(=O)N2CCN(CC3CCN(c4cnc(N5CCN6c7cc(-c8ccccc8O)nnc7NC[C@H]6C5)nc4)CC3)CC2)C(C)(C)C)cc1` [I-163], at SMARCA4, the Dmax was 50 to 70% and the DC50 is more than 100 nM. At SMARCA2 [1], the Dmax fell in the range of 70 to 90%, the DC50 is less than 1 nM and the “Selectivity in MV411” value is “B (B (>100-500 fold))”. Also, at SMARCA2 [2], the Dmax is more than 90% and the DC50 was 10 to 50 nM.
Take `Cc1ncsc1-c1ccc(CNC(=O)[C@@H]2C[C@@H](O)CN2C(=O)C(c2cc(N3CCC(CCN4CCC(c5cnc(N6CCc7[nH]c8nnc(-c9ccccc9O)cc8c7[C@H]6C)nc5)CC4)CC3)no2)C(C)C)cc1` (stereo partly drawn) [I-7]: on SMARCA4, the Dmax was more than 90% and the DC50 lay in the range of 10 to 100 nM. On SMARCA2 [1], the Dmax was more than 90%, the DC50 fell in the range of 1 to 10 nM and the “Selectivity in MV411” value is “C (C (10-100 fold))”. Moreover, at SMARCA2 [2], the Dmax is more than 90% and the half-maximal degradation concentration (DC50) was 10 to 50 nM.
Take `Cc1ncsc1-c1ccc(CNC(=O)[C@@H]2C[C@@H](O)CN2C(=O)[C@@H](NC(=O)[C@H]2CCC3(CC2)C[C@H](N2CCC4(CC2)CN(C(=O)N2CCN5c6cc(-c7ccccc7O)nnc6NC[C@H]5C2)CCO4)C3)C(C)(C)C)cc1` (single isomer, unassigned) [I-133]: at SMARCA4, the Dmax was 50 to 70% and the DC50 was more than 100 nM. For the same molecule, on SMARCA2 [1], the Dmax is 70 to 90%, the DC50 is 10 to 100 nM and the “Selectivity in MV411” value is reported as “C (C (10-100 fold))”. Also, on SMARCA2 [2], the Dmax lay within 70 to 90% and the DC50 was more than 100 nM.
In the case of `C#Cc1ccc(CNC(=O)[C@@H]2C[C@@H](O)CN2C(=O)[C@@H](NC(=O)CN2CC3(CC(N4CCC(N5CCC(N6CCN7c8cc(-c9ccccc9O)nnc8NC[C@H]7C6)CC5)CC4)C3)C2)C(C)(C)C)cc1` [I-214, (2S,4R)—N-(4-ethynylbenzyl)-4-hydroxy-1-((S)-2-(2-(6-(4-((S)-2-(2-hydroxyphenyl)-6a,7,9,10-tetrahydro-5H-pyrazino[1′,2′:4,5]pyrazino[2,3-c]pyridazin-8(6H)-yl)-[1,4′-bipiperidin]-1′-yl)-2-azaspiro[3.3]heptan-2-yl)acetamido)-3,3-dimethylbutanoyl)pyrrolidine-2-carboxamide], on SMARCA4, the Dmax is less than 50% and the DC50 is more than 100 nM. For the same molecule, at SMARCA2 [1], the Dmax lay in the range of 70 to 90%, the DC50 lay within 10 to 100 nM and the “Selectivity in MV411” value is recorded as “B (B (>100-500 fold))”. In addition, on SMARCA2 [2], the Dmax was more than 90% and the DC50 was more than 100 nM.
